Measured values: US7524851B2 (Robert Bosch Gesellschaft fur Medizinische Forschung (RBMF), priority 2003, dated 2009)
Where “and” joins values, the source holds several entries; their conditions need not be identical. Equal entries are not always repeated. Where two headings read alike, the source gives them in different places.

How the values were obtained:
[1] = test system: lamina propria lymphocytes; assay: Apoptosis of anti-CD2/CD28 activated lamina propria lymphocytes in vitro; type: cell-based, human; conditions: ulcerative colitis; 5 days
Text: Isolation of primary CD4^+ T lymphocytes and lamina propria cells: Human peripheral blood mononuclear cells (PBMCs) from healthy volunteers (25-42 years of age) and patients with Crohn's disease (31-65 years of age) were isolated using Ficoll-Hypaque gradients. PBMCs were further purified using CD4 monoclonal antibodies attached to immunomagnetic beads according to the manufacturer's protocol, followed by treatment with Detachabead (Dynal; Oslo, Norway). In some cases, CD4^+ T cells were further separated by negative selection techniques using CD45RO or CD45RA monoclonal antibodies (PharMingen; Heidelberg, Germany) and immunomagnetic beads (Dynal). […]
For FACS analysis, apoptotic cells were detected by staining with annexin V and propidium iodide using the Annexin V FITC Apoptosis Detection Kit I (PharMingen) (Atreya et al., Nat. Med. 6:583-588 (2000)). […] To verify the results obtained with the annexin V/propidium iodide staining, analysis of T cells displaying DNA fragmentation was also determined by the Nicoletti technique, as described in (Nicoletti et al., J. Immunol. Methods 139:271-279 (1991)). […] Finally, cells were analyzed on a FACScan flow cytometer. […]

caspase-9 = assay: Fluorometric protease assay, caspase-9 activity in T lymphocytes; type: cell-based, human; conditions: CD3/CD28/rIL-2 stimulated T cells, 5 days
Description: Caspase-3 proteolytic activity was determined at day 5 by the caspase-3/CPP 32 fluorometric protease assay (Bio Source; Worcester, Mass., USA) according to the manufacturer's protocol. Caspase-8 and caspase-9 proteolytic activity were assessed in parallel by the corresponding fluorometric protease assays (Bio Source).

NF-κB p50/p65 = assay: NF-κB electrophoretic mobility shift assay; type: cell-based, human; conditions: EMSA
Description: Isolation of nuclear proteins: T lymphocytes were washed twice in cold PBS and resuspended in 500 μl of buffer A (10 mM HEPES, 1.5 mM MgCl2, 19 mM KCl, 0.5 mM PMSF, 1 mM DTT) followed by addition of 20 μl of Triton X-100 (Sigma-Aldrich) and incubation on ice for 5 minutes. Cells were centrifuged for 10 minutes at 4° C., followed by the resuspension of the nuclear pellet in buffer C (20 mM HEPES, 1.5 mM MgCl2, 0.2 mM EDTA, 25% glycerol, 0.5 mM PMSF, 1 mM DTT). Finally, the nuclei were homogenized using mini stir bars for 1 hour at 4° C. followed by centrifugation at 15,000 rpm for 15 minutes at 4° C. The concentration of nuclear proteins in supernatants was assessed using the Bio-Rad Protein Assay.
Electrophoretic mobility shift assays: Electrophoretic mobility shift assays (EMSAs) were performed as described in Atreya et al., supra. Oligonucleotides for EMSA were obtained from Santa Cruz Biotech (Heidelberg, Germany). The sequences were as follows: NF-κB, 5′-[sequence]-3′ (SEQ ID NO: 1) and 3′-[sequence]-5′ (SEQ ID NO: 2); and SP-1,5′-[sequence]-3′ (SEQ ID NO: 3) and 3′-[sequence]-5′ (SEQ ID NO: 4). Oligonucleotides were end labeled with [^32P]γ-ATP (>5000 Ci/mmol; Amersham; Arlington Heights, Ill., USA) using T4 polynucleotide kinase (New England Biolabs; Beverly, Mass., USA). […]

Crohn's disease = conditions: CD patients, long-term azathioprine
Description: The diagnosis of CD was confirmed in all patients by radiographic, endoscopic, and histopathologic parameters. Clinical outcomes such as the Crohn's disease activity index (CDAI), number of flares per year, and demand for anti-TNF antibody (e.g., infliximab) treatment were determined on clinical visits.

bcl-xL mRNA = conditions: anti-CD3- plus anti-CD28-activated T lymphocytes
Description: The mRNA of T cells was extracted at the indicated time points using the Tri-reagent (Sigma-Aldrich) according to the manufacturer's protocol. In brief, the cell pellet was lysed in 1 ml of Tri-reagent before addition of 200 μl of chloroform (Sigma-Aldrich; Steinheim, Germany). Each sample was gently mixed before incubation (for 5 minutes at 20° C.) and centrifugation (12,000 g for 15 minutes at 4° C.). The aqueous phase was transferred to a fresh tube, and 0.5 ml of isopropanol (Sigma-Aldrich) was added. Samples were allowed to stand for 5 minutes at room temperature before centrifugation at 12,000 g (for 10 minutes at 4° C.). The supernatants were removed, and the RNA pellet was washed in 75% ethanol.
Gene arrays: mRNA from T lymphocytes was analyzed by the human apoptosis expression array (R&D) as follows. To generate radiolabeled cDNA, 4 μl of human apoptosis-specific primers (R&D) were added to 4 μg of the isolated mRNA, heated in a thermal cycler at 90° C. for 2 minutes, and incubated at 42° C. for 180 minutes in the presence of reverse transcriptase buffer (50 mM Tris-HCl, 8 mM MgCl2, 30 mM KCl, 1 mM DTT), 333 μM dATP, 333 μM dGTP, 333 μM dTTP, 1.67 μM dCTP, 20 U of RNasin, 20 μCi of ^32P-labeled dCTP (Amersham; Freiburg, Germany), and 50 U of AMV reverse transcriptase. […]

Rac1 = conditions: primary T cells upon azathioprine treatment
[2] = after oral administration and absorption; non-enzymatic attack by sulfhydryl-containing compounds; cited from earlier work
[3] = subgroup n=6 (low 6-TGN, low TGTP ratio)
[4] = subgroup n=13 (high 6-TGN and TGDP levels, ratio less than about 0.85)
[5] = subgroup n=13 (high 6-TGN and TGTP levels, ratio greater than about 0.85)
[6] = subgroup n=15 (low 6-TGN, high TGTP ratio)
[7] = subgroup n=21 (low 6-TGN levels)
[8] = subgroup n=26 (high 6-TGN levels)

Sc1ncnc2nc[nH]c12 [6-MP, 6-mercaptopurine]
apoptosis in anti-CD2 plus anti-CD28 activated lamina propria lymphocytes [1]: capable of inducing apoptosis | caspase-9 activity (caspase-9): marked induction | nuclear expression of the p65 subunit of NF-κB (NF-κB p50/p65): downregulated | CD28-induced activation of NF-κB p50/p65 (NF-κB p50/p65; nuclear proteins after 3 days): suppressed

Cn1cnc([N+](=O)[O-])c1Sc1ncnc2nc[nH]c12 [azathioprine, Azathioprine]
CDAI (Crohn's disease activity index) (Crohn's disease; [3]): 151 ± 55 | Flares (number of flares per year) (Crohn's disease; [3]): 1.4 ± 1.3 | INF (infliximab use) (Crohn's disease; [3]): 1.0 ± 0.6 | Response (clinical response rate) (Crohn's disease; [3]): 0.5 ± 0.3 | CDAI (Crohn's disease activity index) (Crohn's disease; [4]): 277 ± 62 | Flares (number of flares per year) (Crohn's disease; [4]): 2.1 and 2.1 ± 0.9 | INF (infliximab use) (Crohn's disease; [4]): 1.1 and 1.1 ± 0.5 | Response (clinical response rate) (Crohn's disease; [4]): 0.15 and 0.15 ± 0.1 | CDAI (Crohn's disease activity index) (Crohn's disease; [5]): 149 ± 35 | INF (infliximab use) (Crohn's disease; [5]): 0.36 and 0.36 ± 0.2 | CDAI (Crohn's disease activity index) (Crohn's disease; [6]): 189 ± 28 | Flares (number of flares per year) (Crohn's disease; [6]): 1.9 ± 1 | INF (infliximab use) (Crohn's disease; [6]): 1.1 ± 0.7 | Response (clinical response rate) (Crohn's disease; [6]): 0.1 ± 0.1 | CDAI (Crohn's disease activity index) (Crohn's disease; [7]): 176 ± 26 | Flares (number of flares per year) (Crohn's disease; [7]): 2.1 ± 0.9 | INF (infliximab use) (Crohn's disease; [7]): 1.1 ± 0.5 | Response (clinical response rate) (Crohn's disease; [7]): 0.16 and 0.16 ± 0.1 | CDAI (Crohn's disease activity index) (Crohn's disease; [8]): 206 ± 36 | Flares (number of flares per year) (Crohn's disease; [8]): 1.1 ± 0.6 | INF (infliximab use) (Crohn's disease; [8]): 0.7 ± 0.3 | bcl-xL mRNA expression (bcl-xL mRNA): strongly suppressed | mRNA expression of other genes such as IL-2R, TACI, and GAPDH (bcl-xL mRNA): not affected | 6-TG detected in Rac1 pull-downs (Rac1): approximately 120 pg of 6-TG per microgram | conversion to 6-MP [2]: approximately 90%
